Series [1] relates to deoxycytidine deaminase. Particulars: background; cited from earlier work.
The conditions of series [2]: cited from earlier work.
The test system of series [3] is leukemia L-1210. Particulars: background; cited from earlier work.
The test system of series [4] is leukemia L-1210. Briefly: Antitumour activity in mice inoculated intraperitoneally with leukemia L-1210 (survival, T/C). It is filed as in vivo, CDF-1 male mice. Particulars: Mus musculus, L1210, ip, directly after injection of L-1210, after 2 days and after 6 days; for response vs control in vivo at 100 mg/kg: 100 mg/kg i.p.; for response vs control in vivo at 200 mg/kg: 200 mg/kg i.p.; for response vs control in vivo at 400 mg/kg: 400 mg/kg i.p. As for the experimental part: The antitumour activity for mice of the test material was evaluated by means of survival rate comparison, T/C (%), that is, 100 times the mean survival period of the groups injected with the test material divided by the mean survival period of the comparison groups which were not injected with the test material.
Further, for comparison, the following materials were also subjected to the same biological test: […]

A short description of series [5]: Solubility test: solubility in water. The class given is physicochemical. An excerpt:
In the aforesaid examples, the products were obtained as white solids.
In Table 1, -Ara-C means "-1-β-D-arabinofuranosylcytosine" and -5'-Pna and -5'-PNa2 mean "-1-β-D-arabinofuranosylcytosine-5'-phosphate monosodium salt" and "-1-β-D-arabinofuranosylcytosine-5'-phosphate disodium salt," respectively.

SMILES strings stand for the structures. ≈ marks a conversion by molar mass, not a printed value. Counter-ions that a name gives are not always drawn. Like-named read-outs stand apart in the source and are kept apart here.

With `N=c1ccn2c(n1)O[C@H]1[C@H](O)[C@@H](CO)O[C@H]12` [2,2'-ANHYDROCYTOSINE ARABINOSIDE, 2,2'-anhydrocytosine arabinoside], the “Deamination / resistance to deaminase (in words)” value in series [1] was “SHOWS HIGH RESISTANCE TO THE DEAMINOSE”. Besides, the “Biological half life / excretion (in words)” value in series [2] (in vivo) is listed as “the biological half life of this derivative is as short as that of cytosine arabinoside”. The “Antileukemial activity (in words)” value in series [3] is “does not have antileukemial activity”.
With `Nc1ccn([C@@H]2O[C@H](CO)[C@@H](O)[C@@H]2O)c(=O)n1` [Ara-C, 1-β-D-arabinofuranosylcytosine], in series [1], the “Deamination / resistance to deaminase (in words)” value was “readily converted into uracil arabinoside”. For the same molecule, in series [2] (background), the “Biological half life / excretion (in words)” value is given as “the biological half life of the medicament is short”. The “Antileukemial activity (in words)” value in series [3] is recorded as “one of the most effective known antileukemial agents”. In addition, in series [4], the response vs control in vivo at 100 mg/kg was found to be 127%, the response vs control in vivo at 200 mg/kg came to 136% and the response vs control in vivo at 400 mg/kg was determined as 164%.
What is called solubility is how much of the substance goes into solution per volume. High values mean a readily soluble substance, low ones a poorly soluble substance. In the case of `CCCCCCCCCCCCCCCCC(=O)Nc1ccn([C@@H]2O[C@H](CO)[C@@H](O)[C@@H]2O)c(=O)n1` [N^4 -Margaroyl-Ara-C], the solubility in series [5] was below 10 µg/mL. Also, in series [4], the response vs control in vivo at 100 mg/kg was above 397%, the response vs control in vivo at 200 mg/kg amounted to 188% and the response vs control in vivo at 400 mg/kg turned out to be 99%.
In turn, `CCCCCCCC/C=C\CCCCCCCC(=O)Nc1ccn([C@@H]2O[C@H](COP(=O)(O)O)[C@@H](O)[C@@H]2O)c(=O)n1` [N^4 -Oleoyl-5'-PNa, N^4-oleoyl-1-β-D-arabinofuranosylcytosine-5'-phosphate monosodium] displayed a Solubility in water in series [5] above 50000 µg/mL. In series [4], this molecule returned a response vs control in vivo at 100 mg/kg of 270%, a response vs control in vivo at 200 mg/kg of 156% and a response vs control in vivo at 400 mg/kg of 103%.
`CCCCCCCC/C=C\CCCCCCCC(=O)Nc1ccn([C@@H]2O[C@H](CO)[C@@H](O)[C@@H]2O)c(=O)n1` [N^4 -Oleoyl-Ara-C] yielded a solubility in series [5] of 50 µg/mL (≈ 98.5 µM). In series [4], the response vs control in vivo at 100 mg/kg is 261%, the response vs control in vivo at 200 mg/kg was determined as 135% and the response vs control in vivo at 400 mg/kg is 94%.
`CCCCCCCCCCCCCCCC(=O)Nc1ccn([C@@H]2O[C@H](COP(=O)(O)O)[C@@H](O)[C@@H]2O)c(=O)n1` [N^4 -Palmitoyl-5'-PNa, N^4-palmitoyl-1-β-D-arabinofuranosylcytosine-5'-phosphate monosodium] displayed a Solubility in water in series [5] above 30000 µg/mL. In series [4], this molecule showed a response vs control in vivo at 100 mg/kg above 349%, a response vs control in vivo at 200 mg/kg above 342% and a response vs control in vivo at 400 mg/kg of 98%.
As for `CCCCCCCCCCCCCCCC(=O)Nc1ccn([C@@H]2O[C@H](CO)[C@@H](O)[C@@H]2O)c(=O)n1` [N^4 -Palmitoyl-Ara-C, N^4-palmitoyl-1-β-D-arabinofuranosylcytosine], the solubility in series [5] turned out to be 10 µg/mL (≈ 20.8 µM). In series [4], this molecule showed a response vs control in vivo at 100 mg/kg above 346%, a response vs control in vivo at 200 mg/kg of 83% and a response vs control in vivo at 400 mg/kg of 78%.
For `CCCCCCCCCCCCCCCCCC(=O)Nc1ccn([C@@H]2O[C@H](COP(=O)(O)O)[C@@H](O)[C@@H]2O)c(=O)n1` [N^4 -Stearoyl-5'-PNa, N^4-stearoyl-1-β-D-arabinofuranosylcytosine-5'-phosphate monosodium salt], in series [5] (monosodium salt), the Solubility in water is above 10000 µg/mL. In series [4], this molecule yielded a response vs control in vivo at 100 mg/kg above 363%, a response vs control in vivo at 200 mg/kg above 338% and a response vs control in vivo at 400 mg/kg of 104%.
In series [5], `CCCCCCCCCCCCCCCCCC(=O)Nc1ccn([C@@H]2O[C@H](CO)[C@@H](O)[C@@H]2O)c(=O)n1` [N^4 -Stearoyl-Ara-C, N^4-stearoyl-1-β-D-arabinofuranosylcytosine] displayed a solubility below 10 µg/mL. In series [4], this molecule gave a response vs control in vivo at 100 mg/kg above 274%, a response vs control in vivo at 200 mg/kg of 123% and a response vs control in vivo at 400 mg/kg of 111%.
`O=c1ccn([C@@H]2O[C@H](CO)[C@@H](O)[C@@H]2O)c(=O)[nH]1` [uracil arabinoside]: the “Antileukemial activity (in words)” value in series [3] is reported as “possesses no antileukemial activity”.

Source of the values: patent US4086417A, “Cytidine nucleotide derivatives” (Asahi Kasei Kogyo Kabushiki Kaisha, priority 1974, dated 1978).
